# Data: US9284333B2, “Fused pyrroledicarboxamides and their use as pharmaceuticals” (SANOFI, priority 2012, dated 2016)
# Target: Human TASK-1 channels (Homo sapiens (Human), UniProt O14649)
# Experiment: Determination of the activity on the TASK-1 channel in Xenopus oocytes (two-microelectrode voltage clamp)
# Format: cell-based
# Conditions: compound concentration 5 μM
# In short: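 Xenopus oocytes were injected with human TASK-1 cRNA and recorded two days later by two-microelectrode voltage clamp, holding at −90 mV with 500 ms steps to 40 mV. Superfusion used ND96, pH 7.4, at room temperature, with rising compound concentrations; percentage inhibition of control current was fitted to a dose-response curve for IC50.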
# Sequence of Human TASK-1 channels (O14649 whole entry): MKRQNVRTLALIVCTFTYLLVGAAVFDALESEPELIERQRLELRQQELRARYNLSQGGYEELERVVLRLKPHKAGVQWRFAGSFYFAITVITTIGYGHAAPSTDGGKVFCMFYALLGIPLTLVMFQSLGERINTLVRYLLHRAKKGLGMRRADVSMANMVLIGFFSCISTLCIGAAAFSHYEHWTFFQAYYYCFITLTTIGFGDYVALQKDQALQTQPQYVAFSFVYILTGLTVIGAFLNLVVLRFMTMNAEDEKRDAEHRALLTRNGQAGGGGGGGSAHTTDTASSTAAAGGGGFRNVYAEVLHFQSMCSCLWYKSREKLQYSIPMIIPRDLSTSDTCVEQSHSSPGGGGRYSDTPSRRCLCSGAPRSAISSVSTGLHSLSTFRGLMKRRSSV
row,inhibition at 5 µM,Structure (SMILES)
1,72%,"CCN(Cc1nnn(C)n1)C(=O)c1cc(C(=O)N[C@H](C)c2ccc(F)cc2)n2c1COCC2 [16rt, 3,4-Dihydro-1H-pyrrolo[2,1-c][1,4]oxazine-6,8-dicarboxylic acid 8-[ethyl-(2-methyl-2H-tetrazol-5-ylmethyl)-amide] 6-{[(R)-1-(4-fluoro-phenyl)-ethyl]-amide}]"
2,84%,"C[C@@H](NC(=O)c1cc(C(=O)NCC(F)(F)F)c2n1CCOC2)c1ccc(F)cc1 [16dr, 3,4-Dihydro-1H-pyrrolo[2,1-c][1,4]oxazine-6,8-dicarboxylic acid 6-{[(R)-1-(4-fluoro-phenyl)-ethyl]-amide} 8-[(2,2,2-trifluoro-ethyl)-amide]]"

# Same assay, conditions: human TASK-1 expressed in Xenopus oocytes, room temperature; read-out: IC50 value for TASK-1 inhibition
row,Structure (SMILES),IC50
1,"CC[C@@H](NC(=O)c1cc(C(=O)N[C@H](CC)c2cnc(OC)cn2)n2c1COCC2)c1ccccc1 [16hy, 3,4-Dihydro-1H-pyrrolo[2,1-c][1,4]oxazine-6,8-dicarboxylic acid 6-{[(R)-1-(5-methoxy-pyrazin-2-yl)-propyl]-amide} 8-[((R)-1-phenyl-propyl)-amide]]",41 nM
2,"CC[C@@H](NC(=O)c1cc(C(=O)N[C@H](CC)c2ccc(C(F)(F)F)nc2)n2c1COCC2)c1ccccc1 [16id, 3,4-Dihydro-1H-pyrrolo[2,1-c][1,4]oxazine-6,8-dicarboxylic acid 8-[((R)-1-phenyl-propyl)-amide] 6-{[(R)-1-(6-trifluoromethyl-pyridin-3-yl)-propyl]-amide}]",530 nM
3,"CC[C@@H](NC(=O)c1cc(C(=O)N[C@H](C)c2ccc(F)cc2)n2c1COCC2)c1ncccn1 [16dz, 3,4-Dihydro-1H-pyrrolo[2,1-c][1,4]oxazine-6,8-dicarboxylic acid 6-{[(R)-1-(4-fluoro-phenyl)-ethyl]-amide} 8-[((R)-1-pyrimidin-2-yl-propyl)-amide]]",220 nM
4,"CC[C@H](NC(=O)c1cc(C(=O)N[C@H](C)c2ccc(F)cc2)c2n1CCOC2)c1ccccc1 [16jp, 3,4-Dihydro-1H-pyrrolo[2,1-c][1,4]oxazine-6,8-dicarboxylic acid 8-{[(R)-1-(4-fluoro-phenyl)-ethyl]-amide} 6-[((S)-1-phenyl-propyl)-amide]]",220 nM
5,"CC[C@@H](NC(=O)c1cc(C(=O)N[C@@H]2CCc3ccccc32)n2c1COCC2)c1ccccc1 [16gp, 3,4-Dihydro-1H-pyrrolo[2,1-c][1,4]oxazine-6,8-dicarboxylic acid 6-(R)-indan-1-ylamide 8-[((R)-1-phenyl-propyl)-amide]]",570 nM
6,"CC[C@@H](NC(=O)c1cc(C(=O)N[C@H](C)C2CC2)n2c1COCC2)c1ccc(C(F)(F)F)nc1 [16nz, 3,4-Dihydro-1H-pyrrolo[2,1-c][1,4]oxazine-6,8-dicarboxylic acid 6-[((R)-1-cyclopropyl-ethyl)-amide] 8-{[(R)-1-(6-trifluoromethyl-pyridin-3-yl)-propyl]-amide}]",2200 nM
7,"CC[C@@H](NC(=O)c1cc(C(=O)N[C@H](C)c2cnccn2)n2c1COCC2)c1ccccc1Cl [16nq, 3,4-Dihydro-1H-pyrrolo[2,1-c][1,4]oxazine-6,7-dicarboxylic acid 8-{[(R)-1-(2-chloro-phenyl)-propyl]-amide} 6-[((R)-1-pyrazin-2-yl-ethyl)-amide]]",480 nM
8,"CC[C@@H](NC(=O)c1cc(C(=O)N2CCC[C@@H]2C(C)O)n2c1COCC2)c1ccccc1 (stereo partly drawn) [16ey, 6-[(R)-2-(1-Hydroxy-ethyl)-pyrrolidine-1-carbonyl]-3,4-dihydro-1H-pyrrolo[2,1-c][1,4]oxazine-8-carboxylic acid ((R)-1-phenyl-propyl)-amide]",4700 nM
9,"COC(=O)[C@H]1CCCN1C(=O)c1cc(C(=O)N[C@@H](c2ccc(F)cc2)C(C)C)n2c1COCC2 [16ln, (R)-1-{6-[(R)-1-(4-Fluoro-phenyl)-2-methyl-propylcarbamoyl]-3,4-dihydro-1H-pyrrolo[2,1-c][1,4]oxazine-8-carbonyl}-pyrrolidine-2-carboxylic acid methyl ester]",140 nM
10,"CC[C@@H](NC(=O)c1cc(C(=O)N2CCC[C@@H]2C)n2c1COCC2)c1cc(F)ccc1Cl [16w, 6-((S)-2-Methyl-pyrrolidine-1-carbonyl)-3,4-dihydro-1H-pyrrolo[2,1-c][1,4]oxazine-8-carboxylic acid [(R)-1-(2-chloro-5-fluoro-phenyl)-propyl]-amide]",40 nM
11,"CC[C@@H](NC(=O)c1cc(C(=O)N2CCC[C@@H]2C(O)C2CC2)n2c1COCC2)c1ccccc1 (stereo partly drawn) [16et, 6-[(R)-2-(Cyclopropyl-hydroxy-methyl)-pyrrolidine-1-carbonyl]-3,4-dihydro-1H-pyrrolo[2,1-c][1,4]oxazine-8-carboxylic acid ((R)-1-phenyl-propyl)-amide]",1300 nM
12,"CC(C)[C@@H](NC(=O)c1cc(C(=O)NCc2cnccn2)c2n1CCOC2)c1ccc(F)cc1 [16lo, 3,4-Dihydro-1H-pyrrolo[2,1-c][1,4]oxazine-6,8-dicarboxylic acid 6-{[(R)-1-(4-fluoro-phenyl)-2-methyl-propyl]-amide} 8-[(pyrazin-2-ylmethyl)-amide]]",420 nM
13,"CC[C@@H](NC(=O)c1cc(C(=O)N2CCC[C@@H]2C)n2c1COCC2)c1cccs1 [16rc, 6-((S)-2-Methyl-pyrrolidine-1-carbonyl)-3,4-dihydro-1H-pyrrolo[2,1-c][1,4]oxazine-8-carboxylic acid ((R)-1-thiophen-2-yl-propyl)amide]",150 nM
14,"CC[C@@H](NC(=O)c1cc(C(=O)N2CC[C@H](F)C2)n2c1CCCC2)c1ccccc1 [16mk, 3-((S)-3-Fluoro-pyrrolidine-1-carbonyl)-5,6,7,8-tetrahydro-indolizine-1-carboxylic acid ((R)-1-phenyl-propyl)-amide]",550 nM
15,"CC[C@@H](NC(=O)c1cc(C(=O)NC(C)c2cnc(OC)cn2)n2c1COCC2)c1ccccc1 (stereo partly drawn) [16iv, 3,4-Dihydro-1H-pyrrolo[2,1-c][1,4]oxazine-6,8-dicarboxylic acid 6-{[1-(5-methoxy-pyrazin-2-yl)-ethyl]-amide} 8-[((R)-1-phenyl-propyl)-amide]]",120 nM
16,"CC[C@@H](NC(=O)c1cc(C(=O)NCc2ncco2)c2n1CCOC2)c1ccccc1 [16jn, 3,4-Dihydro-1H-pyrrolo[2,1-c][1,4]oxazine-6,8-dicarboxylic acid 8-[(oxazol-2-ylmethyl)-amide] 6-[((R)-1-phenyl-propyl)-amide]]",1000 nM

# Results, then the compound that gave them:
row,IC50,Structure (SMILES)
1,3600 nM,"CC[C@@H](NC(=O)c1cc(C(=O)N2CCN(CCC(F)(F)F)C[C@@H]2C)n2c1COCC2)c1ccccc1 [16ft, 6-[(S)-2-Methyl-4-(3,3,3-trifluoro-propyl)-piperazine-1-carbonyl]-3,4-dihydro-1H-pyrrolo[2,1-c][1,4]oxazine-8-carboxylic acid ((R)-1-phenyl-propyl)-amide]"
2,800 nM,"CC[C@@H](NC(=O)c1cc(C(=O)N2CCC[C@@H]2C)n2c1COCC2)c1cnc(C(F)(F)F)cc1C(F)(F)F [16by, 6-((S)-2-Methyl-pyrrolidine-1-carbonyl)-3,4-dihydro-1H-pyrrolo[2,1-c][1,4]oxazine-8-carboxylic acid [(R)-1-(4,6-bis-trifluoromethyl-pyridin-3-yl)-propyl]-amide]"
3,650 nM,"CC[C@@H](NC(=O)c1cc(C(=O)NCc2c(C)noc2C)n2c1COCC2)c1ccccc1 [16pq, 3,4-Dihydro-1H-pyrrolo[2,1-c][1,4]oxazine-6,8-dicarboxylic acid 6-[(3,5-dimethyl-isoxazol-4-ylmethyl)-amide] 8-[((R)-1-phenyl-propyl)-amide]]"
4,560 nM,"CC[C@@H](NC(=O)c1cc(C(=O)N2CC[C@H](OC)C2)n2c1COCC2)c1ccccc1 [16ek, 6-((S)-3-Methoxy-pyrrolidine-1-carbonyl)-3,4-dihydro-1H-pyrrolo[2,1-c][1,4]oxazine-8-carboxylic acid ((R)-1-phenyl-propyl)-amide]"
5,350 nM,"CC[C@@H](NC(=O)c1cc(C(=O)NCc2ccc(C(=O)OC)cc2)n2c1COCC2)c1ccccc1 [16ir, 4-({[8-((R)-1-Phenyl-propylcarbamoyl)-3,4-dihydro-1H-pyrrolo[2,1-c][1,4]oxazine-6-carbonyl]-amino}-methyl)-benzoic acid methyl ester]"
6,320 nM,"CC[C@@H](NC(=O)c1cc(C(=O)N[C@H](C)c2ccc(OC)cc2)n2c1CCCC2)c1ccccc1 [16mt, 5,6,7,8-Tetrahydro-indolizine-1,3-dicarboxylic acid 3-{[(R)-1-(4-methoxy-phenyl)-ethyl]-amide} 1-[((R)-1-phenyl-propyl)-amide]]"
7,190 nM,"C[C@@H](NC(=O)c1cc(C(=O)N[C@H](C)c2ccc(F)cc2)n2c1COCC2)c1cccc(F)c1 [16do, 3,4-Dihydro-1H-pyrrolo[2,1-c][1,4]oxazine-6,8-dicarboxylic acid 6-{[(R)-1-(4-fluoro-phenyl)-ethyl]-amide} 8-{[(R)-1-(3-fluoro-phenyl)-ethyl]-amide}]"
8,130 nM,"CC[C@H](NC(=O)c1cc(C(=O)N[C@H](CC)c2ccccc2)c2n1CCOC2)c1cnc(OC)cn1 [16hz, 3,4-Dihydro-1H-pyrrolo[2,1-c][1,4]oxazine-6,8-dicarboxylic acid 6-{[(S)-1-(5-methoxy-pyrazin-2-yl)-propyl]-amide} 8-[((R)-1-phenyl-propyl)-amide]]"
9,130 nM,"CC[C@@H](NC(=O)c1cc(C(=O)N[C@@H](C)C(=O)OC(C)C)n2c1COCC2)c1ccccc1 [16it, (S)-2-{[8-((R)-1-Phenyl-propylcarbamoyl)-3,4-dihydro-1H-pyrrolo[2,1-c][1,4]oxazine-6-carbonyl]-amino}-propionic acid isopropyl ester]"
10,70 nM,"CC[C@@H](NC(=O)c1cc(C(=O)N[C@@H](C)c2ccc(F)cc2)n2c1COCC2)c1ccccc1 [16ht, 3,4-Dihydro-1H-pyrrolo[2,1-c][1,4]oxazine-6,8-dicarboxylic acid 6-{[(S)-1-(4-fluoro-phenyl)-ethyl]-amide} 8-[((R)-1-phenyl-propyl)-amide]]"
11,42 nM,"CC[C@@H](NC(=O)c1cc(C(=O)N[C@@H](C)C2CC2)n2c1CCCC2)c1ccccc1 [16mz, 5,6,7,8-Tetrahydro-indolizine-1,3-dicarboxylic acid 3-[((S)-1-cyclopropyl-ethyl)-amide] 1-[((R)-1-phenyl-propyl)-amide]]"
